Data published in ChEMBL document CHEMBL3045479, “Synthesis and anti-cancer activity of some novel C-17 analogs of ursolic and oleanolic acids” (2013).

Tests used:
Type in all cases: functional
COLO 205 = experiment: Growth inhibition of Homo sapiens (human) COLO205 cells at 10 uM after 48 hr by SRB assay; settings: COLO 205, 48 h, read-out: GI
PC-3 = experiment: Growth inhibition of Homo sapiens (human) PC3 cells at 10 uM after 48 hr by SRB assay; settings: PC-3, 48 h, read-out: GI
THP-1 = experiment: Growth inhibition of Homo sapiens (human) THP1 cells at 10 uM after 48 hr by SRB assay; settings: THP-1, 48 h, read-out: GI
A549 = experiment: Growth inhibition of Homo sapiens (human) A549 cells at 10 uM after 48 hr by SRB assay; settings: A549, 48 h, read-out: GI
SiHa = experiment: Growth inhibition of Homo sapiens (human) SiHa cells at 10 uM after 48 hr by SRB assay; settings: read-out: GI
HeLa = experiment: Growth inhibition of Homo sapiens (human) HeLa cells at 10 uM after 48 hr by SRB assay; settings: read-out: GI
SW-620 = experiment: Growth inhibition of Homo sapiens (human) SW620 cells at 10 uM after 48 hr by SRB assay; settings: SW-620, 48 h, read-out: GI
IMR-32 = experiment: Growth inhibition of Homo sapiens (human) IMR32 cells at 10 uM after 48 hr by SRB assay; settings: IMR-32, 48 h, read-out: GI

Row | Compound | inhibition of growth at 10 µM (COLO 205) [%] | inhibition of growth at 10 µM (PC-3) [%] | inhibition of growth at 10 µM (THP-1) [%] | inhibition of growth at 10 µM (A549) [%] | inhibition of growth at 10 µM (SiHa) [%] | inhibition of growth at 10 µM (HeLa) [%] | inhibition of growth at 10 µM (SW-620) [%] | inhibition of growth at 10 µM (IMR-32) [%]
1 | C[C@H]1[C@H](C)CC[C@]2(C(=O)OCBr)CC[C@]3(C)C(=CC[C@@H]4[C@@]5(C)CC[C@H](O)C(C)(C)[C@@H]5CC[C@]43C)[C@H]12 [BROMOMETHYL-3BETA-HYDROXY-URS-12-EN-28-OATE] | 13 | 6 | 49 | 7 | – | – | – | –
2 | C[C@H]1[C@H](C)CC[C@]2(C(=O)OCCCCCCCCCBr)CC[C@]3(C)C(=CC[C@@H]4[C@@]5(C)CC[C@H](O)C(C)(C)[C@@H]5CC[C@]43C)[C@H]12 [BROMONONYL-3BETA-HYDROXY-URS-12-EN-28-OATE] | 3 | 9 | 0 | 0 | – | – | – | –
3 | C[C@H]1[C@H](C)CC[C@]2(C(=O)OCCCCCCCCBr)CC[C@]3(C)C(=CC[C@@H]4[C@@]5(C)CC[C@H](O)C(C)(C)[C@@H]5CC[C@]43C)[C@H]12 [BROMOOCTYL-3BETA-HYDROXY-URS-12-EN-28-OATE] | 0 | 1 | 4 | 0 | – | – | – | –
4 | C[C@H]1[C@H](C)CC[C@]2(C(=O)OCCCCCBr)CC[C@]3(C)C(=CC[C@@H]4[C@@]5(C)CC[C@H](O)C(C)(C)[C@@H]5CC[C@]43C)[C@H]12 [BROMOPENTYL-3BETA-HYDROXY-URS-12-EN-28-OATE] | 1 | 6 | 10 | 7 | – | – | – | –
5 | C[C@H]1[C@H](C)CC[C@]2(C(=O)OCCCBr)CC[C@]3(C)C(=CC[C@@H]4[C@@]5(C)CC[C@H](O)C(C)(C)[C@@H]5CC[C@]43C)[C@H]12 [BROMOPROPYL-3BETA-HYDROXY-URS-12-EN-28-OATE] | 10 | 0 | 68 | 9 | – | – | – | –
6 | C[C@H]1[C@H](C)CC[C@]2(C(=O)O)CC[C@]3(C)C(=CC[C@@H]4[C@@]5(C)CC[C@H](O)C(C)(C)[C@@H]5CC[C@]43C)[C@H]12 [URSOLIC ACID] | 7 | 60 | 52 | 8 | 67 | 65 | 71 | 13
